Several values for one entry are separate records, joined by “and”; a condition that tells them apart may be missing. Identical values can stand only once. Activity calls are given as the source filed them.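 How the source made its calls: active means compounds giving half or more protection of infected cells from virus-caused growth loss, again on retest; inactive means the rest.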
Tested on: CEM cells HIV-1 protection, formazan growth assay
Assay: NCI AIDS Antiviral Assay
Conditions: for IC50: measured here: growth of uninfected CEM cells
Procedure, shortened: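 Human CEM cells, uninfected and HIV-1-infected, exposed to five drug concentrations; growth measured by soluble formazan assay and scored as percent protection from infection, with protecting compounds retested.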

SMILES	outcome	EC50	IC50
COc1ccc2nc(NC(=O)C(=O)CC(=O)c3ccc(Cl)cc3)sc2c1	inactive	–	–
CSc1c(C#N)c(=O)n(N)c2c1c(C)nn2-c1ccccc1	–	> 200 µM	26.9 µM
O=c1c2ccccc2nc(-c2ccccc2)n1NC1OC(CO)C(O)C(O)C1O (configuration not stated)	inactive	–	–
CCCCOP(=O)(/C=C\c1ccccn1)OCCCC	–	> 120 µM	> 120 µM
Nc1ccc[nH]c1=O	–	> 234 µM	> 234 µM
O=[N+]([O-])/C=C/c1cn(CCCCCn2cc(/C=C/[N+](=O)[O-])c3ccccc32)c2ccccc12	–	> 200 µM	2.63 µM
COc1ccc(-c2c(C#N)c(S)n(C3OC(COC(C)=O)C(OC(C)=O)C(OC(C)=O)C3OC(C)=O)c(=O)c2C#N)cc1 (configuration not stated)	–	> 200 µM	> 200 µM
COc1cc(=O)cc(Cl)c(Cl)c1Cl	inactive	–	–
c1ccc(C2=NC3OC2c2ccccc23)cc1 (configuration not stated)	–	> 200 µM	> 200 µM
Cc1[nH]c(=O)[nH]c(=O)c1Cc1ccc(Cl)cc1	–	> 200 µM	> 200 µM
NCCCC(N)(C(=O)O)C(F)F (configuration not stated)	–	> 200 µM	129 µM
O=C1NCCCCC1CCCC#Cc1ccccc1 (configuration not stated)	–	> 74.1 µM	45.7 µM
COc1cccc2c1C(=O)c1c(O)c3c(c(O)c1C2=O)C[C@@](O)(C(C)=O)C[C@@H]3OC1CC(N)C(O)C(C)O1 (some centres not stated)	–	> 4.47 µM	0.0038 µM
CCOC(=O)CCC(=O)C1c2cccc(O)c2C(=O)c2c(O)cc(C)cc21 (configuration not stated)	–	> 37.2 µM	1.35 µM
Cc1ccc(-n2cc(/C(N)=N/O)c3ccccc3c2=O)cc1	–	> 89.1 µM	> 89.1 µM
COC(O)C12OC3CO[Si](C(C)C)(C(C)C)O[Si](C(C)C)(C(C)C)OC3C1Oc1nc(=O)ccn12 (configuration not stated)	–	> 200 µM	30.2 µM
CCN(CC)C(=O)c1c(N2CCOCC2)cc(N(CC)CC)oc1=O	–	> 708 µM	> 708 µM
COc1ccc(OCc2ccc3nc(-c4ccccc4)c(Cl)nc3c2)cc1	–	> 200 µM	20.4 µM
c1ccc(N2C3Sc4ncccc4C2Sc2ncccc23)cc1	–	> 66.1 µM	> 66.1 µM
COc1ccc2c(c1)C(=O)CC(C(=O)O)C2 (configuration not stated)	–	> 1120 µM	> 1120 µM
COc1ccc(C2S/C(=C\c3cccc(O)c3)C(=O)N2NC(=O)Cc2ccccc2)cc1 (configuration not stated)	–	> 112 µM	> 112 µM
O=C(O[C@@H]1C(=O)N2CC[C@H]3OC(O)[C@@H]1[C@H]32)c1ccc([N+](=O)[O-])cc1 (some centres not stated)	–	> 200 µM	> 200 µM
COc1ccc2c(c1)CCC1C[C@@H]3C[C@]21C=CC3=O (some centres not stated)	–	> 182 µM	49 µM and > 28.2 µM

SMILES	outcome	EC50	IC50
N#CC1(C#N)C2C=CC(C3CCC=C32)C1(C#N)C#N (configuration not stated)	–	> 200 µM	7.76 µM
CC[C@H](OCc1ccccc1)/C(C)=C/CC(C)/C=C(/C[C@]1(C)OC(=O)N2CCC[C@H]21)[Si](C)(C)C (some centres not stated)	–	> 10.7 µM	> 10.7 µM
CC(=O)N=C1N(/C=C2\C(=O)Oc3ccccc3C2=O)C(=O)/C(=C/c2cccc(Cl)c2Cl)N1C	–	> 200 µM	26.3 µM
CC1(C)N=C(C(=O)c2ccccc2)N(O)C1(O)c1ccccc1 (configuration not stated)	–	> 200 µM	135 µM
COc1ccccc1NC(=O)C1=C(C)NC(C)=C(C(=O)Nc2ccccc2OC)C1c1ccccc1[N+](=O)[O-]	–	> 13.5 µM	> 13.5 µM
O=C(CN1CCN(c2ccccc2)CC1)N1CCc2c([nH]c3ccccc23)C1c1cccnc1 (configuration not stated)	–	> 1.58 µM	> 1.58 µM
O=c1[nH]nc(Cc2ccccc2)n1/N=C\c1ccccc1	–	> 200 µM	> 200 µM
COC(=O)[C@@H]1C=C[C@H](NC(C)=O)C1	inactive	–	–
O=C1CNCCNCC(=O)Nc2ccccc2-c2ccccc2N1	inactive	–	–
CC(=O)[C@H]1CC[C@H]2[C@@H]3CCC4=CC(=O)CC[C@]4(C)[C@H]3CC[C@]12C	–	> 200 µM	85.1 µM and 91.2 µM
CC(=O)OC1OC(=O)C(C)(C(C)=O)C1C (configuration not stated)	inactive	–	–
CCCCCCCCCC(=O)CC(=O)c1c(O)cc(O)cc1O	–	> 200 µM	26.3 µM
CCC(C)COC(=O)c1ccc(N=Cc2ccc(C=Nc3ccc(C(=O)OCC(C)CC)cc3)cc2)cc1 (configuration not stated)	–	> 2.82 µM	> 2.82 µM
O=S1OCCO1	–	> 2290 µM	> 2290 µM
CC1CC(C)CC(C)C(O)/C(C#N)=C/C=C/CC(C2CCCC2C(=O)O)OC(=O)CC(O)C(C)C1 (configuration not stated)	–	> 2.57 µM	0.00575 µM
O=c1[nH]c(=O)n(C2CC(O)C(CO)O2)cc1OS(=O)(=O)C(F)(F)F (configuration not stated)	–	> 661 µM	9.77 µM
C=C(C)C1CC2=C(C(=O)OC)C=C(O2)C(C(=C)C)[C@@H]2OC(=O)/C(=C\C1O)[C@H]2N(C)C (some centres not stated)	–	> 20 µM	5.01 µM
OCc1ccc2c(c1)CC1(C2)Cc2cc3c(cc2C1)CCC3	–	> 200 µM	0.977 µM
O=C(O)c1cc(O)c2c(c1)C(=O)c1cc(O)cc(O)c1C2=O	inactive	–	–
Cc1[nH]c2ccccc2c1C1Cc2ccccc2N1C(=O)/C(Cl)=C/c1ccccc1 (configuration not stated)	–	> 6.61 µM	> 6.61 µM
N#Cc1ccccc1Nc1ccccc1S	–	> 16.6 µM	> 16.6 µM
N#Cc1cc2ccccc2nc1SN	inactive	–	–

From PubChem BioAssay AID179 (DTP/NCI, 2004)
